We go through three compounds from patent EP0533084A1, “Pharmaceutical compositions comprising natriuretic peptides or neutral endopeptidase inhibitors for treating and preventing myointimal proliferation” (SCHERING CORPORATION, priority 1991, dated 1993).

For the test, the system named is carotid artery intimal proliferation. The test is described as follows: balloon catheter injury of the left carotid artery in spontaneously hypertensive rats; morphometric and DNA analyses of intimal proliferation 14 days post-injury. It is filed as in vivo, male spontaneously hypertensive rats. The following applies: SHR, means ± SEM. The procedure:
Briefly, rats were anesthetized with Metofane (methoxyflurane) and a 2 Fr Fogarty embolectomy catheter was inserted into the left external carotid artery. The catheter was advanced 5 cm, inflated and retracted 3 times, turning the catheter 90^o each time. […] Animals were autopsied following exsanguination with ketamine (40 mg/kg) plus xylazine (10 mg/kg) i.m. anesthesia at specified timepoints following balloon injury.
Standard samples of the control right and balloon injured left carotid arteries were taken for DNA and morphometric analyses. […] The DNA results were expressed as the ratio of the left or ballooned carotid to the right control carotid. Three samples were taken for histology at 2.5 mm intervals cephalad from the DNA sample from each carotid artery and fixed in 4% paraformaldehyde containing 10% sucrose (wt/vol). Paraffin-embedded sections were stained with the Gomori trichrome-aldehyde fuchsin stain and computer-assisted morphometric analyses were performed using a Bioquant System IV image analyzer (R&M Biometrics Inc.). Morphometric measurements included: maximal intimal thickness (mm), intimal cross sectional area (mm²), and intimal cross sectional area/medial cross sectional area. […]

[1] abbreviates: Exp. 5A, 10 mpk once a day, control see Exp. 1A.

For `CC1(C)OCC(COC(=O)[C@H](Cc2ccccc2)N[C@@H](Cc2ccccc2)C(=O)NCCC(=O)O)O1` (stereo partly drawn) [compound A, N-[N-[(L)-[1-[(2,2-dimethyl-1,3-dioxolan-4-yl)methoxy]carbonyl]-2-phenylethyl]-L-phenylalanyl]-ß-alanine], for the setting “Exp. 1, 90 mpk b.i.d.”, the “Carotid DNA (ballooned/ control)” value is 3.16 ±0.35, the “Intimal Area” value was found to be 0.99 ±0.010 mm^2, the “Intimal Area/ Medial Area” value came to 0.653 ±0.067 and the “Maximal Intimal Thickness” value is reported as 0.104 ±0.011 mm. For the setting “Exp. 1A, 90 mpk b.i.d.”, the “Carotid DNA (ballooned/ control)” value was found to be 4.60 ±0.67, the “Intimal Area” value was 0.099 ±0.010 mm^2, the “Intimal Area/ Medial Area” value amounted to 0.692 ±0.066 and the “Maximal Intimal Thickness” value was found to be 0.110 ±0.010 mm.
For `CCOC(=O)[C@H](CCSC)NC(=O)C(CSC(C)=O)Cc1ccccc1C` (stereo partly drawn) [compound B, N-[2-acetylthiomethyl-3-(2-methylphenyl)-propionyl]-methionine ethyl ester], under “Exp. 2, 30 mpk b.i.d.”, the “Carotid DNA (ballooned/ control)” value turned out to be 3.47 ±0.40, the “Intimal Area” value was found to be 0.071 ±0.010 mm^2, the “Intimal Area/ Medial Area” value worked out at 0.441 ±0.052 and the “Maximal Intimal Thickness” value stood at 0.085 ±0.009 mm. Further, for the setting “Exp. 2A, 10 mpk b.i.d.”, the “Carotid DNA (ballooned/ control)” value turned out to be 3.12 ±0.22, the “Intimal Area” value is recorded as 0.106 ±0.010 mm^2, the “Intimal Area/ Medial Area” value is given as 0.719 ±0.062 and the “Maximal Intimal Thickness” value amounted to 0.112 ±0.012 mm. Besides, under “Exp. 4, 10 mpk b.i.d.”, the “Carotid DNA (ballooned/ control)” value is listed as 4.38 ±0.73, the “Intimal Area” value came out at 0.085 ±0.009 mm^2, the “Intimal Area/ Medial Area” value turned out to be 0.592 ±0.067 and the “Maximal Intimal Thickness” value is 0.095 ±0.012 mm.
Turning to `CCOC(=O)[C@H](CCc1ccccc1)N[C@@H](C)C(=O)N1CC2(C[C@H]1C(=O)O)SCCS2` [compound D, spirapril, reference compound], under setting [1], the “Carotid DNA (ballooned/ control)” value came to 1.94 ±0.32, the “Intimal Area” value came out at 0.064 ±0.005 mm^2, the “Intimal Area/ Medial Area” value is 0.500 ±0.049 and the “Maximal Intimal Thickness” value came to 0.082 ±0.010 mm.
